Data set [1] is described as follows: Solubility of the drug substance. The data set is classed as physicochemical.
A short description of data set [2]: Hygroscopicity of the drug substance. It is filed as physicochemical. Conditions: normal storage conditions.
A short description of data set [3]: Example 2 Phase 1 single-ascending dose study in healthy subjects. The data set is classed as in vivo, human. An excerpt: Following Screening, subjects received single doses of study drug and were monitored during an in-clinic period and an out-patient follow-up period. Subjects were confined to the study site for Study Days −2 through 7 to collect PK and safety assessments. Following discharge from the study site on Study Day 7, subjects returned to the study site on Study Days 14, 21, 28, and 35.

For data set [4] the following is noted: healthy subjects, cited from earlier work.
The conditions of data set [5]: non-CF BE patients, 28 days, cited from earlier work.

Where two headings read alike, the source gives them in different places.

As for `CC1=C(C#N)[C@@H](c2ccc(C#N)cc2S(C)(=O)=O)N(C)C(=O)N1c1cccc(C(F)(F)F)c1` [Compound 1, (4S)-4-[4-cyano-2-(methylsulfonyl)phenyl]-3,6-dimethyl-2-oxo-1-[3-(trifluoromethyl)phenyl]-1,2,3,4-tetrahydropyrimidine-5-carbonitrile], the solubility in acetone result in data set [1] (acetone) is listed as “soluble”. Further, the solubility in ethanol entry in data set [1] (ethanol) is recorded as “very slightly soluble”. Further, in data set [1] (water), the solubility in water entry is listed as “practically insoluble”. In data set [2], the hygroscopicity result is “not hygroscopic”. For the same molecule, the subjects with headache result in data set [3] (36 received Compound 1, single doses 1 to 40 mg) is listed as “one”. In data set [3] (single doses 1 to 40 mg), the “AE rate compared with placebo” value is recorded as “somewhat lower than that in the control (placebo) subjects”; the “effects on laboratory safety evaluations (clinical chemistry and hematology)” value is recorded as “no clear effects”; the “exposure (AUC and Cmax) with dose” value is on record as “proportional increases”; the “serious AEs” value is “no serious AEs”. Further, the “study drug-induced laboratory or ECG abnormalities” value in data set [4] (Phase 1 studies) is reported as “No safety signals”. The safety and tolerability result in data set [4] (single and repeated doses up to 1 mg for up to 14 days) is “safe and well tolerated”. In addition, in data set [4] (three Phase 1 studies), the serious adverse events entry is reported as “no serious AEs (SAEs) were reported”. The safety and tolerability entry in data set [5] (1.0 mg oral IR tablet) was “generally safe and well tolerated”. In addition, in data set [5] (1.0 mg oral), the “SAEs attributed to the drug” value is on record as “no SAEs were attributed by the investigator to the drug” and the “study drug-induced laboratory parameter or ECG effects” value is on record as “No safety signals”.
